# Columns and labels:
# [1] = system: Collagen-induced arthritis; experiment: Collagen-Induced Arthritis (CIA) study; assay type: in vivo; details: 10 mpk po bid, male DBA/1J mice
# Description: Collagen-Induced Arthritis (CIA) Study Collagen-induced arthritis is an animal model of rheumatoid arthritis used to evaluate the efficacy of test compounds. CIA was induced at Washington Biotechnology Inc. (Baltimore) in male DBA/1J mice (Jackson Laboratories) by subcutaneous injection at the base of the tail with 50 μl of a bovine collagen/complete Freund's adjuvant emulsion. After 21 days, the mice were further boosted by a further subcutaneous injection of 50 μl of a collagen/incomplete Freund's adjuvant emulsion. For treatment, compound or vehicle (2% DMSO, 10% HP—β-CD in MilliQ water) was given orally twice daily at various doses selected from 3, 10, 30 mg/kg, beginning at the day of CIA induction (Prophylactic setting), or after disease initiation (at day 27, therapeutic setting). Treatment lasted until day 41, and the animals were scored three times weekly. Each paw was scored and the sum of all four scores was recorded as the Arthritic Index (AI). The maximum possible AI was 16. 0=no visible effects of arthritis; 1=edema and/or erythema of one digit; 2=edema and/or erythema of 2 joints; 3=edema and/or erythema of more than 2 joints; 4=severe arthritis of the entire paw and digits including limb deformation and ankylosis of the joint. […] At 10 mpk po bid, H6-13-2 Arthritis Index (AI) decreased with 83% of the effect of the mouse aIL-17A antibody. […]
# RORγ = molecular target: T1, RORγ (Homo sapiens, UniProt P51449); experiment: RORγ Reporter Assay (Gal4); assay type: cell-based; details: HEK293 co-transfected with RORγ LBD-Gal4 and luciferase reporter, 24 h incubation, absolute IC50; read-out: IC50
# T1 construct: Gal4 (galactose-responsive transcription factor); expressed in transfected cells; host or cells: HEK293
# T1 sequence (P51449 269-508 limits assumed): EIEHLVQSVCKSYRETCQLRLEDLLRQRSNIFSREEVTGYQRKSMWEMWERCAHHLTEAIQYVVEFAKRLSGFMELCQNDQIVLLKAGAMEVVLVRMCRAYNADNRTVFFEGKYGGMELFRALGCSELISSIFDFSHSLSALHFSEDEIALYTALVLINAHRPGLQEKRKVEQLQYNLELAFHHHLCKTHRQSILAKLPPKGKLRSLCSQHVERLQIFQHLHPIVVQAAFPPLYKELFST
# Description: RORγ Reporter Assay (Gal4)
# The HEK293 cell line is co-transfected transiently with two plasmids, one with the RORγ ligand-binding domain fused to galactose-responsive transcription factor (Gal4), and the other with the luciferase reporter gene and Gal binding sites (UAS). This construction allows to determine the RORγ activity in a cellular system through the measurement of luminescence.
# A suspension of RORγ reporter cells was dispensed into plates and cultured 2 h at 37° C. and 5% CO2. Media formulation consisted in DMEM/F-12 medium (Gibco) supplemented with 10% heat inactivated FBS (Sigma-Aldrich), non-essential aminoacids (Sigma-Aldrich), 2 mM Glutamax (Gibco) and 100 U/mF penicillin (Sigma-Aldrich). Dose-response curves with compounds were prepared in 100% DMSO and further diluted […] in culture medium. Compound solutions were added to the plate containing cells (final DMSO concentration of 0.1%) and incubated for 24 h at 37° C. and 5% CO2. Luciferase detection reagent was added to each well, and relative light units […] were quantified from each assay well using a plate reading luminometer.
# Values of average RFU±S.D. were computed for all treatment sets, followed by the calculations of percent-reduction of RORγ activity in response to respective test compound. The following formula was used: activity=100*[1−[x test compound/average vehicle]where the theoretical minimum reduction (0% reduction).
# Th17 cells = experiment: Th17 assay (IL-17 in supernatants of differentiating human naive CD4+ T cells, ELISA); assay type: cell-based; details: 168 h, Th17 differentiation for seven days with test compound, IL-17 levels in supernatants by ELISA
# Description: Th17 Assay (Another Suitable Assay)
# The following modifications were made to the manufacturer's protocol: 1) Incubation with Biotin-Antibody Cocktail and Anti-Biotin MicroBeads was prolonged to 30 minutes, and 2) Cells were washed with 40 mL of Miltenyi buffer. Differentiation of Th17 cells in anti-CD3 (BD Pharmingen, 5 μg/ml) coated 96-well plates (400,000 cells/well, 160 μl RPMI1640+10% Fetal Bovine Serum) containing 5 μg/ml anti-CD28 (BD Pharmingen), 10 ng/ml IL-2 (R&D Systems), 2.5 ng/ml TGFβ-1 (R&D Systems), 20 ng/ml IL-1β (R&D Systems), 20 ng/ml IL-6 (R&D Systems), 30 ng/ml IL-23 (R&D Systems), 2.5 μg/ml anti-IL-4 (R&D Systems) and 1 μg/ml anti-IFNγ (R&D Systems) and with test compound during the entire differentiation (or vehicle, 0.1% DMSO for control). Test compounds were tested in triplicates, diluted 1000-fold in medium (final DMSO concentration is 0.1%). Incubated for seven days at 37° C., 5% CO2, 95% humidity, and 2-fluoro-4′-[[4-(4-pyridinylmethyl)-1-piperazinyl]methyl]-α,α-bis(trifluoromethyl)-[1,1′-biphenyl]-4-methanol (SR2211 Calbiochem, Cat. No. 557353) was used as positive control. As negative control, cells were differentiated into Th0 using 5 μg/ml anti-CD28 (BD Pharmingen), 10 ng/ml IL-2 (R&D Systems), 2 μg/ml anti-IL4 (R&D Systems) and 2 μg/ml anti-IFNγ (R&D Systems) are negative control. IL-17 levels in supernatants were measured with ELISA (R&D Systems).
# plasma IL-17A = experiment: In vivo IL-17A induction in anti-CD3 model in mice; details: oral gavage twice daily day 0 to day 3, plasma IL-17A by ELISA, C57BL/6JRj mice
# Description: In Vivo IL-17A Induction in Anti-CD3 Model in Mice
# Male C57BL/6JRj mice (7 week old) were purchased from Janvier Labs and housed at the animal facilities of Almirall throughout the study. Animals were allowed to condition for 5 days in their new environment at 22° C.±2° C., 55%±10% relative humidity and 12 h:12 h light:dark cycles. Animals were housed in polycarbonate cages, with free access to water and non-purified stock diet (2014 Teklad Global 14% Protein Rodent Maintenance Diet, Envigo) during the full course of the studies. Care of animals was undertaken in compliance with the European Committee Directive 2010/63/EU, and the Catalan and Spanish law. […]
# Plasma levels of IL-17A were measured by ELISA (R&D Systems) according to the manufacturer's instruction. Results were calculated as the percentage of reduction of plasma IL-17A versus the difference between non-induced and anti-CD3e induced groups through the formula: inhibition=100*[1−[(x−mean non-induced)/(mean control vehicle−mean non-induced)]]. The IL-17A inhibition for each treatment can be expressed as the mean for each treatment group±S.E.M. Statistical analysis of data were conducted with one-way ANOVA followed by Dunnett's multiple comparisons test when appropriate. […]
smiles,measurement,setting,value
"NC(=O)CN1CC[C@H](CNc2ncnc(N3CCOC[C@@H]3c3ccc(C(F)(F)F)cn3)c2F)[C@@H](F)C1 (single isomer, unassigned) [Example H6-13-2, 2-((3R*,4R*)-3-fluoro-4-(((5-fluoro-6-((S)-3-(5-(trifluoromethyl)pyridin-2-yl)morpholino)pyrimidin-4-yl)amino)methyl)piperidin-1-yl)acetamide]",Arthritis Index (AI) decrease as % of the effect of the mouse aIL-17A antibody,[1],83%
same,IC50,RORγ,54 nM
same,IC50,Th17 cells,93 nM
"NC(=O)CN1CC[C@H](CNc2ncnc(N3CC(F)(F)C[C@@H]3c3ccc(C(F)(F)F)cc3)c2F)[C@@H](O)C1 (single isomer, unassigned) [Example H6-17-1, 2-((3R*,4R*)-4-(((6-((R)-4,4-difluoro-2-(4-(trifluoromethyl)phenyl)pyrrolidin-1-yl)-5-fluoropyrimidin-4-yl)amino)methyl)-3-hydroxypiperidin-1-yl)acetamide]",IC50,RORγ,26 nM
same,Inhibition of IL-17A (%) at 3 mg/kg,plasma IL-17A,67%
"NC(=O)CN1CCC(CNc2ncnc(N3CCOC[C@@H]3c3ccc(C(F)(F)F)cn3)c2F)C(F)(F)C1 (single isomer, unassigned) [Example H6-11-2, 2-((R*)-3,3-difluoro-4-(((5-fluoro-6-((S)-3-(5-(trifluoromethyl)pyridin-2-yl)morpholino)pyrimidin-4-yl)amino)methyl)piperidin-1-yl)acetamide]",Arthritis Index (AI) decrease as % of the effect of the mouse aIL-17A antibody,[1],61%
same,IC50,RORγ,66 nM
same,IC50,Th17 cells,82 nM
